Experimental data published in patent US12396964B2 (Shinkei Therapeutics, Inc., priority 2021, dated 2025).
Structures can show the parent of a compound that is named as a salt.

Experiments:
[1] = Applicants' finding on safety of the intravenous dose, volume and rate of administration
Procedure: As discussed above, the volume of fluid is not only critical in terms of increase in ICP, but it is also critical in terms of defining the time of administration of the dose, and therefore, the rate of administration of the dose. […] Each dose is administered over a period of 180 minutes, i.e. at a rate of about 1.39 ml/min.

clinical = conditions: human, in vivo
Procedure: The subjects received the test treatments as described in Table 1 below, under direct observation following an overnight fast of at least 10 hours.
Plasma concentrations of amantadine increased rapidly and reached maximum plasma concentrations at around 3 hours after start of the IV infusion.
The plasma amantadine concentrations from healthy adults enrolled in the open-label, multiple-cohort, single-period non-randomized single-ascending dose study of Example 1 were used to determine the decrease in concentration of amantadine over time, after the administration of the first dose of 100 mg and 150 mg in different cohorts. The data is supportive in determining the timing of the second dose of amantadine.

[2] = Safety and tolerability study of amantadine hydrochloride IV solution 200 mg with plasma sampling in healthy adult subjects (Example 2); format: in vivo, human; conditions: 200 mg IV
Procedure: 4 mL venous blood was collected before dosing (0 hour) and at the following nominal times after dosing: 0.5, 1, 2, 3, 4, 5, 5.5, 6, 7, 9, 12, 16, 24, 36, 48 and 72 hours post-dose. Safety was assessed by qualified study staff by evaluating the following: reported adverse events, clinical laboratory test results, vital sign measurements, ECG findings, physical examination findings at screening and clinic exit (including body weight and height measurements), and concomitant medication usage. The blood samples collected were used to assess the decrease in concentration of amantadine in the plasma over time, and is tabulated in Table 3 below.

With `NC12CC3CC(CC(C3)C1)C2` [amantadine hydrochloride] the “safety of the dose” value ([1]; about 100 mg to about 200 mg in a volume of 250 ml as a single dose, over 180 minutes, twice a day) was “safe”, the “safety of the rate of administration” value ([1]; rate ranging between 0.5 mg/min to about 1.2 mg/min) was “safe” and the half-life (clinical; both sexes, iv, T1/2) was 11.4 h. It also gave a Tmax (clinical; both sexes, iv, Tmax) of 3 h, a half-life (clinical; both sexes, iv, half-life (T½)) of 11 to 15 h and a Tmax (clinical; both sexes, iv, maximum plasma concentration (Tmax)) of 3 to 4 h. For the same molecule, the half-life (clinical; both sexes, iv, mean elimination half-life) was 11.5 to 14.5 h, the “increase of AUC0-28, more than proportional to the dose” value (clinical; both) was ~3 fold and the “increase of Cmax, more than proportional to the dose” value (clinical; both) was ~2.3 fold. The Tmax (clinical; both, iv) was 3.25 h, the “plasma levels remained detectable post-dose” value (clinical; both, iv, 3 h) was 48 to 72 h and the “% decrease in plasma amantadine concentration” value (“% decrease” for short) ([2]; 0 hr after first dose) was 0.0%. For the same molecule, the “% decrease” value ([2]; 1 hr after first dose) was 14.0%, the “% decrease” value ([2]; 2 hr after first dose) was 20.9% and the “% decrease” value ([2]; 2.5 hr after first dose) was 24.5%. For the same molecule, the “% decrease” value ([2]; 3 hr after first dose) was 26.2%, the “% decrease” value ([2]; 4 hr after first dose) was 30.0% and the “% decrease” value ([2]; 6 hr after first dose) was 34.5%. For the same molecule, the “% decrease” value ([2]; 9 hr after first dose) was 48.3%.
